Measured values reported in US9273067B2, “Pyrazolopyrimidine macrocycles as inhibitors of human immunodeficiency virus replication” (BRISTOL-MYERS SQUIBB COMPANY, priority 2014, dated 2016).

Tested on: NL-RLuc virus (recombinant HIV NL4-3 with Renilla Luciferase) in MT-2 cells
Assay: Inhibition of HIV replication (NL-RLuc virus in MT-2 cells, luciferase readout)
Type: cell-based, human immunodeficiency virus (HIV)
From the text: Inhibition of HIV Replication:
A recombinant NL-RLuc proviral clone was constructed in which a section of the nef gene from NL4-3 was replaced with the Renilla Luciferase gene. This virus is fully infectious and can undergo multiple cycles of replication in cell culture. In addition, the luciferous reporter provides a simple and easy method for quantitating the extent of virus growth and consequently, the antiviral activity of test compounds. The plasmid pNLRLuc contains the proviral NL-Rluc DNA cloned into pUC 18 at the PvuII site. The NL-RLuc virus was prepared by transfection of 293T cells with the plasmid pNLRLuc. Transfections were performed using the LipofectAMINE PLUS kit from Invitrogen (Carlsbad, Calif.) according to the manufacturer and the virus generated was titered in MT-2 cells. For susceptibility analyses, the titrated virus was used to infect MT-2 cells in the presence of compound, and after 5 days of incubation, cells were processed and quantitated for virus growth by the amount of expressed luciferase. Assay media was RPMI 1640 supplemented with 10% heat inactivated fetal bovine serum (FBS), 100 units/ml penicillin G/100 units/ml streptomycin, 10 mM HEPES buffer pH 7.55 and 2 mM L-glutamine. The results from at least 2 experiments were used to calculate the EC50 values. Luciferase was quantitated using the Dual Luciferase kit from Promega (Madison, Wis.). Susceptibility of viruses to compounds was determined by incubation in the presence of serial dilutions of the compound. The 50% effective concentration (EC50) was calculated by using the exponential form of the median effect equation where (Fa)=1/[1+(ED50/drug conc.)^m] (Johnson V A, Byington R T. Infectivity Assay. In Techniques in HIV Research. ed. Aldovini A, Walker B D. 71-76. New York: Stockton Press. 1990).

[1] = MT2, 120 h, NL-RLuc virus infecting MT-2 cells, 5 days of incubation, 10% FBS, luciferase quantitation, at least 2 experiments

Compound | EC50 [1] [nM] | EC50 ({}) [nM]
Cc1ccc2c(c1)O[C@@H](C)CCCCOC1(C)CCN(CC1)c1c([C@H](OC(C)(C)C)C(=O)O)c(C)nc3cc(nn13)COC2 [Example 38, (2S)-2-(tert-Butoxy)-2-[(20S)-4,16,20,26-tetramethyl-11,19,25-trioxa-1,5,7,8-tetraazapentacyclo[24.2.2.1^6,^9.0^2,^7.0^13,^18]hentriaconta-2,4,6(31),8,13(18),14,16-heptaen-3-yl]acetic acid] | 2 | –
Cc1cc(CN2CC=CCOC3(C)CCN(CC3)c3c([C@H](OC(C)(C)C)C(=O)O)c(C)nc4cc(nn34)CNC(=O)C2=O)ccc1F [Example 18, (2S)-2-(tert-Butoxy)-2-[14-[(4-fluoro-3-methylphenyl)methyl]-4,20-dimethyl-12,13-dioxo-19-oxa-1,5,7,8,11,14-hexaazatetracyclo[18.2.2.1^6,^9.0^2,^7]pentacosa-2,4,6(25),8,16-pentaen-3-yl]acetic acid] | 122 | –
Cc1nc2cc3nn2c(c1[C@H](OC(C)(C)C)C(=O)O)N1CCC(C)(CC1)OCCCCOc1ccccc1CC(=O)NC3 [Example 17, (2S)-2-(tert-Butoxy)-2-{4,26-dimethyl-12-oxo-20,25-dioxa-1,5,7,8,11-pentaazapentacyclo[24.2.2.1^6,^9.1^2,^7.0^14,^19]hentriaconta-2,4,6(31),8,14(19),15,17-heptaen-3-yl}acetic acid] | 24 | –
Cc1nc2cc3nn2c(c1[C@H](OC(C)(C)C)C(=O)O)N1CCC(C)(CC1)OCC=CCOCc1cn(nn1)C3 [Example 1, (2S)-2-(tert-Butoxy)-2-[4,22-dimethyl-16,21-dioxa-1,5,7,8,11,12,13-heptaazapentacyclo[20.2.2.1^6,^9.1^11,^14.0^2,^7]octacosa-2,4,6(28),8,12,14(27),18-heptaen-3-yl]acetic acid] | 2490 | –
Cc1nc2cc3nn2c(c1[C@H](OC(C)(C)C)C(=O)O)N1CCC(C)(CC1)OCCCCCCc1ccccc1COC3 [Example 58, (2S)-2-(tert-Butoxy)-2-{4,26-dimethyl-11,25-dioxa-1,5,7,8-tetraazapentacyclo[24.2.2.1^6,^9.0^2,^7.0^13,^18]hentriaconta-2,4,6(31),8,13(18),14,16-heptaen-3-yl}acetic acid] | 62 | –
Cc1ccc(C2CCCCOC3(C)CCN(CC3)c3c([C@H](OC(C)(C)C)C(=O)O)c(C)nc4cc(nn34)CO2)cc1 (stereo partly drawn) [Example 47, (2S)-2-(tert-butoxy)-2-[4,18-dimethyl-12-(4-methylphenyl)-11,17-dioxa-1,5,7,8-tetraazatetracyclo[16.2.2.1^6,^9.0^2,^7]tricosa-2,4,6(23),8-tetraen-3-yl]acetic acid] | – | 1590
Cc1nc2cc3nn2c(c1[C@H](OC(C)(C)C)C(=O)O)N1CCC(C)(CC1)OCCCCC(c1ccccc1)Oc1ccc(F)cc1COC3 (stereo partly drawn) [Example 51, (2S)-2-(tert-butoxy)-2-{15-fluoro-4,26-dimethyl-20-phenyl-11,19,25-trioxa-1,5,7,8-tetraazapentacyclo[24.2.2.1^6,^9.0^2,^7.0^13,^18]hentriaconta-2,4,6(31),8,13(18),14,16-heptaen-3-yl}acetic acid] | – | 18
Cc1ccc2c(c1)O[C@@H](C)CCCCOC1(C)CCN(CC1)c1c([C@H](OC(C)(C)C)C(=O)O)c(C)nc3cc(nn13)CO[C@H]2C (single isomer, unassigned) [Example 55] | 7 | –
Cc1nc2cc3nn2c(c1[C@H](OC(C)(C)C)C(=O)O)N1CCC(C)(CC1)OCCCCc1cc(F)ccc1COC3 [Example 66, (2S)-2-(tert-Butoxy)-2-{16-fluoro-4,24-dimethyl-11,23-dioxa-1,5,7,8-tetraazapentacyclo[22.2.2.1^6,^9.0^2,^7.0^13,^18]nonacosa-2,4,6(29),8,13(18),14,16-heptaen-3-yl}acetic acid] | 4 | –
Cc1nc2cc3nn2c(c1[C@H](OC(C)(C)C)C(=O)O)N1CCC(C)(CC1)OCCCCc1ccccc1COC3 [Example 24, (2S)-2-(tert-Butoxy)-2-{4,24-dimethyl-11,23-dioxa-1,5,7,8-tetraazapentacyclo[22.2.2.1^6,^9.0^2,^7.0^13,^18]nonacosa-2,4,6(29),8,13(18),14,16-heptaen-3-yl}acetic acid] | 3 | –
Cc1nc2cc3nn2c(c1[C@H](OC(C)(C)C)C(=O)O)N1CCC(C)(CC1)OCCCCCc1cc(F)ccc1COC3 [Example 60, (2S)-2-(tert-Butoxy)-2-{16-fluoro-4,25-dimethyl-1,24-dioxa-1,5,7,8-tetraazapentacyclo[23.2.2.1^6,^9.0^2,^7.0^13,^18]triaconta-2,4,6(30),8,13(18),14,16-heptaen-3-yl}acetic acid] | 13 | –
Cc1nc2cc3nn2c(c1[C@H](OC(C)(C)C)C(=O)O)N1CCC(C)(CC1)OCCCC[C@H](C)Oc1c(ccc2ccccc12)COC3 [Example 61, (2S)-2-(tert-butoxy)-2-[(24S)-4,24,30-trimethyl-11,23,29-trioxa-1,5,7,8-tetraazahexacyclo[28.2.2.1^6,^9.0^2,^7.0^13,^22.0^16,^21]pentatriaconta-2,4,6(35),8,13(22),14,16(21),17,19-nonaen-3-yl]acetic acid] | 5 | –
Cc1nc2cc3nn2c(c1[C@H](OC(C)(C)C)C(=O)O)N1CCC(C)(CC1)OCCCc1ccccc1CCC3 [Example 25, (2S)-2-(tert-Butoxy)-2-{4,23-dimethyl-22-oxa-1,5,7,8-tetraazapentacyclo[21.2.2.1^6,^9.0^2,^7.0^13,^18]octacosa-2,4,6(28),8,13(18),14,16-heptaen-3-yl}acetic acid] | 31 | –
Cc1ccc(C2CCCCOC3(C)CCN(CC3)c3c([C@H](OC(C)(C)C)C(=O)O)c(C)nc4cc(nn34)CO2)cc1 (stereo partly drawn) [Example 46, (2S)-2-(tert-butoxy)-2-[4,18-dimethyl-12-(4-methylphenyl)-11,17-dioxa-1,5,7,8-tetraazatetracyclo[16.2.2.1^6,^9.0^2,^7]tricosa-2,4,6(23),8-tetraen-3-yl]acetic acid] | – | 735
Cc1nc2cc3nn2c(c1[C@H](OC(C)(C)C)C(=O)O)N1CCC(C)(CC1)OCCCCC(C(F)(F)F)Oc1cc(F)ccc1COC3 (stereo partly drawn) [Example 54, (2S)-2-(tert-butoxy)-2-[16-fluoro-4,26-dimethyl-20-(trifluoromethyl)-11,19,25-trioxa-1,5,7,8-tetraazapentacyclo[24.2.2.1^6,^9.0^2,^7.0^13,^18]hentriaconta-2,4,6(31),8,13,15,17-heptaen-3-yl]acetic acid] | 7 | –
Cc1ccc2c(c1)COCc1cc3nc(C)c([C@H](OC(C)(C)C)C(=O)O)c(n3n1)N1CCC(C)(CC1)OCCCC[C@H](C)O2 [Example 30, (2S)-2-(tert-Butoxy)-2-[(20S)-4,15,20,26-tetramethyl-11,19,25-trioxa-1,5,7,8-tetraazapentacyclo[24.2.2.1^6,^9.0^2,^7.0^13,^18]hentriaconta-2,4,6(31),8,13,15,17-heptaen-3-yl]acetic] | 64 | –
Cc1nc2cc3nn2c(c1[C@H](OC(C)(C)C)C(=O)O)N1CCC(C)(CC1)OCC=Cc1cc(C(F)(F)F)ccc1COC3 [Example 26, (2S)-2-(tert-Butoxy)-2-[4,23-dimethyl-16-(trifluoromethyl)-11,22-dioxa-1,5,7,8-tetraazapentacyclo[21.2.2.1^6,^9.0^2,^7.0^13,^18]octacosa-2,4,6(28),8,13(18),14,16,19-octaen-3-yl]acetic acid] | 32 | –
Cc1nc2cc3nn2c(c1[C@H](OC(C)(C)C)C(=O)O)N1CCC(C)(CC1)OCCCCOC1(CCCCC1)c1cn(nn1)C3 [Example 8, (2S)-2-(tert-Butoxy)-2-{4′,22′-dimethyl-16′,21′-dioxa-1′,5′,7′,8′,11′,12′,13′-heptaazaspiro[cyclohexane-1,15′-pentacyclo[20.2.2.1^6,^9.1^11,^14.0^2,^7]octacosane]-2′,4′,6′(28′),8′,12′,14′(27′)-hexaen-3′-yl}acetic acid] | 111 | –
Cc1nc2cc3nn2c(c1[C@H](OC(C)(C)C)C(=O)O)N1CCC(C)(CC1)OCCCC[C@H](C)Oc1cc2ccccc2cc1COC3 [Example 53, (2S)-2-(tert-butoxy)-2-[(24S)-4,24,30-trimethyl-11,23,29-trioxa-1,5,7,8-tetraazahexacyclo[28.2.2.1^6,^9.0^2,^7.0^13,^22.0^15,^20]pentatriaconta-2,4,6(35),8,13,15,17,19,21-nonaen-3-yl]acetic acid] | 2 | –
Cc1cc2c(cc1Cl)COCc1cc3nc(C)c([C@H](OC(C)(C)C)C(=O)O)c(n3n1)N1CCC(C)(CC1)OCCCC[C@H](C)O2 [Example 69, (2S)-2-(tert-Butoxy)-2-[(20S)-15-chloro-4,16,20,26-tetramethyl-11,19,25-trioxa-1,5,7,8-tetraazapentacyclo[24.2.2.1^6,^9.0^2,^7.0^13,^18]hentriaconta-2,4,6(31),8,13,15,17-heptaen-3-yl]acetic acid] | 12 | –
